Measurements from patent US10221138B2, “Biaryl derivatives as GPR120 agonists” (LG CHEM, LTD., priority 2013, dated 2019).

These compounds were tested against T1, hGPR120 (Homo sapiens, UniProt Q5NUL3) (assay: Measurement of activity of GPR120 agonist (cell-based calcium fluorescence assay)). Settings: CHO-K1 cells expressing Ga16 and hGPR120, Calcium 5 dye fluorescence; activity class; read-out: EC50.
T1 construct: expressed in transfected cells; host or cells: CHO-K1
T1 sequence (Q5NUL3 1-361): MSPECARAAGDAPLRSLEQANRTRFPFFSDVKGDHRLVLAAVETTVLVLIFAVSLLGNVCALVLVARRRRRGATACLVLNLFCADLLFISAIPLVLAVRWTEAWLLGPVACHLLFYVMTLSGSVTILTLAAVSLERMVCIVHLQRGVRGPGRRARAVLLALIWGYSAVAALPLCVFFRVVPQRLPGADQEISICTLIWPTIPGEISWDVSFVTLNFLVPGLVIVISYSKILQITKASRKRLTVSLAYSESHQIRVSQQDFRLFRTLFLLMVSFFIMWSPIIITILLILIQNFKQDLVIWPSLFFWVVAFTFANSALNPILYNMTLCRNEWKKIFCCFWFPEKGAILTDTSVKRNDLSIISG
Procedure, shortened: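 CHO-K1 cells co-expressing Gα16 and hGPR120, plated 18 h, loaded with Calcium 5 dye for 1 h at 37 °C, then given serially diluted agonists (final 0.5% DMSO). Fluorescence increase expressed as relative % of the 1% DMSO-only signal.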

Row | Compound | EC50
1 | O=C(O)CCCSc1c(F)cc(-c2cccc(OC3CCC3)c2)cc1F [Example 134, 4-(3′-cyclobutoxy-3,5-difluoro-biphenyl-4-ylsulfanyl)-butyric acid] | < 0.2 µM
2 | Cc1cnn(-c2ncccc2-c2cc(F)c(OCCCC(=O)O)c(F)c2)c1 [Example 110, 4-[2,6-difluoro-4-[2-(4-methylpyrazol-1-yl)-3-pyridyl]phenoxy]butanoic acid] | > 20 µM
3 | O=C(O)CCCOc1c(F)cc(-c2cccc(N3CCCC3)c2)cc1F [Example 92, 4-[2,6-difluoro-4-(3-pyrrolidin-1-ylphenyl)phenoxy]butanoic acid] | < 0.2 µM
4 | O=C(O)CCCSc1ccc(-c2cccc(OC3CCCC3)c2)cc1 [Example 126, 4-(3′-cyclopentyloxy-biphenyl-4-ylsulfanyl)-butyric acid] | < 0.2 µM
5 | CC(C)Oc1ncccc1-c1cc(F)c(SCCCC(=O)O)c(F)c1 [Example 138, 4-[2,6-difluoro-4-(2-isopropoxy-pyridin-3-yl)-phenylsulfanyl]-butyric acid] | < 0.2 µM
6 | O=C(O)CCCSc1ccc(-c2cc(F)ccc2NC2CCCC2)cc1F [Example 175, 4-(2′-cyclopentylamino-3,5′-difluoro-biphenyl-4-ylsulfanyl)-butyric acid] | < 0.2 µM
7 | COc1cc(-c2cccnc2SC2CCC2)ccc1OCCCC(=O)O [Example 7, 4-[4-(2-cyclobutylsulfanyl-pyridin-3-yl)-2-methoxy-phenoxy]-butyric acid] | 2 to 20 µM
8 | O=C(O)CCCOc1ccc(-c2ccccc2OCC2CC2)cc1 [Example 58, 4-(2′-cyclopropylmethoxy-biphenyl-4-yloxy)-butyric acid] | 0.2 to 2 µM
9 | O=C(O)CCCCCSc1c(F)cc(-c2cccnc2OC2CCCC2)cc1F [Example 276, 6-[4-(2-cyclopentyloxy-pyridin-3-yl)-2,6-difluoro-phenylsulfanyl]-hexanoic acid] | 0.2 to 2 µM
10 | O=C(O)CCCSc1ccc(-c2cccnc2OC2CCC2)cc1 [Example 143, 4-[4-(2-cyclobutoxy-pyridin-3-yl)-phenylsulfanyl]-butyric acid] | 0.2 to 2 µM
11 | O=C(O)CCCOc1c(F)cc(-c2ccccc2OCC2CC2)cc1F [Example 54, 4-(2′-cyclopropylmethoxy-3,5-difluoro-biphenyl-4-yloxy)-butyric acid] | < 0.2 µM
12 | O=C(O)CCCOc1c(F)cc(-c2ccccc2CC2CCC2)cc1F [Example 101, 4-[4-[2-(cyclobutylmethyl)phenyl]-2,6-difluoro-phenoxy]butanoic acid] | < 0.2 µM
13 | O=C(O)CCCOc1c(F)cc(-c2cccc(CC3CCC3)n2)cc1F [Example 103, 4-[4-[6-(cyclobutylmethyl)-2-pyridyl]-2,6-difluoro-phenoxy]butanoic acid] | < 0.2 µM
